Experimental data published in patent publication US20260008787A1, “FUSED RING KRAS INHIBITORS FOR TREATING DISEASE” (BLOSSOMHILL THERAPEUTICS, INC., priority 2022, published 2026).

Legend:
Type in all cases: cell-based
[1] = tested on: GP2D (KRAS G12D); assay: Cell proliferation assay (CellTiter-Glo, 72 hours), GP2D; conditions: GP2d, 72 h, 384-well, CellTiter-Glo 2.0
Protocol: (§1) Two thousand KRAS mutant cells per well were seeded in 384-well white plate and then treated with indicated compounds for 72 hours at 37° C. and 5% CO2. Cell proliferation was measured using CellTiter-Glo 2.0 luciferase-based ATP detection assay (Promega, Madison, WI) following the manufacturer's protocol. IC50 values were determined using Prism software (GraphPad Software, San Diego, CA).

[2] = tested on: AGS (G12D); assay: Cell proliferation assay (CellTiter-Glo, 72 hours), AGS; conditions: 72 h, 384-well, CellTiter-Glo 2.0
Protocol: as §1

[3] = tested on: SW620 (KRAS G12V); assay: Cell proliferation assay (CellTiter-Glo, 72 hours), SW620; conditions: Homo sapiens, SW-620, 72 h, 384-well, CellTiter-Glo 2.0
Protocol: as §1

Row | Structure (SMILES) | IC50 [1] | IC50 [2] | IC50 [3]
1 | C#Cc1c(F)ccc2cc(O)cc(-c3nc4c5c(nc(OC[C@@]67CCCN6C[C@H](F)C7)nc5c3F)N(C)[C@@H](CO)CO4)c12 [Example 27, 5-ethynyl-6-fluoro-4-[(9S)-4-fluoro-2-{[(2R,7aS)-2-fluorotetrahydro-1H-pyrrolizin-7a(5H)-yl]methoxy}-9-(hydroxymethyl)-10-methyl-9,10-dihydro-8H-7-oxa-1,3,6,10-tetraazacyclohepta[1,2,3-de]naphthalen-5-yl]naphthalen-2-ol] | > 3 µM | > 3 µM | 
2 | CCc1c(F)ccc2cc(O)cc(-c3nc4c5c(nc(OC[C@@]67CCCN6C[C@H](F)C7)nc5c3F)N(C)[C@@H](CO)CO4)c12 [Example 28, 5-ethyl-6-fluoro-4-[(9S)-4-fluoro-2-{[(2R,7aS)-2-fluorotetrahydro-1H-pyrrolizin-7a(5H)-yl]methoxy}-9-(hydroxymethyl)-10-methyl-9,10-dihydro-8H-7-oxa-1,3,6,10-tetraazacyclohepta[1,2,3-de]naphthalen-5-yl]naphthalen-2-ol] | > 3 µM | > 3 µM | > 3 µM
3 | C#Cc1c(F)ccc2cc(O)cc(-c3nc4c5c(nc(OC[C@@]67CCCN6C[C@H](F)C7)nc5c3F)N3C[C@H](O)CC[C@H]3CO4)c12 [Example 29, (8aS,11R)-5-(8-ethynyl-7-fluoro-3-hydroxynaphthalen-1-yl)-4-fluoro-2-{[(2R,7aS)-2-fluorotetrahydro-1H-pyrrolizin-7a(5H)-yl]methoxy}-8,8a,9,10,11,12-hexahydro-7-oxa-1,3,6,12a-tetraazabenzo[4,5]cyclohepta[1,2,3-de]naphthalen-11-ol] | 0.364 µM | 0.76 µM | > 3 µM
4 | C#Cc1c(F)ccc2cc(O)cc(-c3nc4c5c(nc(OC[C@@]67CCCN6C[C@H](F)C7)nc5c3F)N3C[C@](C)(O)CC[C@H]3CO4)c12 [Example 30, (8aS,11R)-5-(8-ethynyl-7-fluoro-3-hydroxynaphthalen-1-yl)-4-fluoro-2-{[(2R,7aS)-2-fluorotetrahydro-1H-pyrrolizin-7a(5H)-yl]methoxy}-11-methyl-8,8a,9,10,11,12-hexahydro-7-oxa-1,3,6,12a-tetraazabenzo[4,5]cyclohepta[1,2,3-de]naphthalen-11-ol] | 0.0505 µM | 0.0973 µM | 0.139 µM
5 | C#Cc1c(F)ccc2cc(O)cc(-c3nc4c5c(nc(OC[C@@]67CCCN6C[C@H](F)C7)nc5c3F)N[C@@H](C3CC3)CO4)c12 [Example 31, 4-[(9S)-9-cyclopropyl-4-fluoro-2-{[(2R,7aS)-2-fluorotetrahydro-1H-pyrrolizin-7a(5H)-yl]methoxy}-9,10-dihydro-8H-7-oxa-1,3,6,10-tetraazacyclohepta[1,2,3-de]naphthalen-5-yl]-5-ethynyl-6-fluoronaphthalen-2-ol] | 1.88 µM | > 3 µM | > 3 µM
6 | C#Cc1c(F)ccc2cc(O)cc(-c3nc4c5c(nc(OC[C@@]67CCCN6C[C@H](F)C7)nc5c3F)N(C)[C@@H](C3CC3)CO4)c12 [Example 32, 4-[(9S)-9-cyclopropyl-4-fluoro-2-{[(2R,7aS)-2-fluorotetrahydro-1H-pyrrolizin-7a(5H)-yl]methoxy}-10-methyl-9,10-dihydro-8H-7-oxa-1,3,6,10-tetraazacyclohepta[1,2,3-de]naphthalen-5-yl]-5-ethynyl-6-fluoronaphthalen-2-ol] | 0.293 µM | 0.623 µM | 0.693 µM
7 | CCc1c(F)ccc2cc(O)cc(-c3nc4c5c(nc(OC[C@@]67CCCN6C[C@H](F)C7)nc5c3F)N[C@@H](C3CC3)CO4)c12 [Example 33, 4-[(9S)-9-cyclopropyl-4-fluoro-2-{[(2R,7aS)-2-fluorotetrahydro-1H-pyrrolizin-7a(5H)-yl]methoxy}-9,10-dihydro-8H-7-oxa-1,3,6,10-tetraazacyclohepta[1,2,3-de]naphthalen-5-yl]-5-ethyl-6-fluoronaphthalen-2-ol] | 0.962 µM | 2.84 µM | 1.53 µM
8 | C#Cc1c(F)ccc2cc(O)cc(-c3nc4c5c(nc(OC[C@@]67CCCN6C[C@H](F)C7)nc5c3F)N[C@@H](C3CCC3)CO4)c12 [Example 35, 4-[(9S)-9-cyclobutyl-4-fluoro-2-{[(2R,7aS)-2-fluorotetrahydro-1H-pyrrolizin-7a(5H)-yl]methoxy}-9,10-dihydro-8H-7-oxa-1,3,6,10-tetraazacyclohepta[1,2,3-de]naphthalen-5-yl]-5-ethynyl-6-fluoronaphthalen-2-ol] | > 3 µM | > 3 µM | > 3 µM
9 | CCc1c(F)ccc2cc(O)cc(-c3nc4c5c(nc(OC[C@@]67CCCN6C/C(=C\F)C7)nc5c3F)N3CCCC[C@H]3CO4)c12 [Example 41, 5-ethyl-6-fluoro-4-[(8aS)-4-fluoro-2-{[(2Z,7aS)-2-(fluoromethylidene)tetrahydro-1H-pyrrolizin-7a(5H)-yl]methoxy}-8,8a,9,10,11,12-hexahydro-7-oxa-1,3,6,12a-tetraazabenzo[4,5]cyclohepta[1,2,3-de]naphthalen-5-yl]naphthalen-2-ol] | 0.0207 µM | 0.0431 µM | 0.042 µM
10 | C#Cc1c(F)ccc2cc(O)cc(-c3nc4c5c(nc(OC[C@@]67CCCN6C[C@H](F)C7)nc5c3F)N[C@@H](C(C)C)CO4)c12 [Example 47, 5-ethynyl-6-fluoro-4-[(9S)-4-fluoro-2-{[(2R,7aS)-2-fluorotetrahydro-1H-pyrrolizin-7a(5H)-yl]methoxy}-9-(propan-2-yl)-9,10-dihydro-8H-7-oxa-1,3,6,10-tetraazacyclohepta[1,2,3-de]naphthalen-5-yl]naphthalen-2-ol] | ≥ 6 µM | 0.789 µM | > 3 µM
11 | C#Cc1c(F)ccc2cc(O)cc(-c3nc4c5c(nc(OC[C@@]67CCCN6C[C@H](F)C7)nc5c3F)N[C@@H](CCOC)CO4)c12 [Example 48, 5-ethynyl-6-fluoro-4-[(9S)-4-fluoro-2-{[(2R,7aS)-2-fluorotetrahydro-1H-pyrrolizin-7a(5H)-yl]methoxy}-9-(2-methoxyethyl)-9,10-dihydro-8H-7-oxa-1,3,6,10-tetraazacyclohepta[1,2,3-de]naphthalen-5-yl]naphthalen-2-ol] | 2.2 µM | > 3 µM | > 3 µM
12 | C#Cc1c(F)ccc2cc(O)cc(-c3nc4c5c(nc(OC[C@@]67CCCN6C[C@H](F)C7)nc5c3F)N(C)[C@@H](C(C)C)CO4)c12 [Example 51, 5-ethynyl-6-fluoro-4-[(9S)-4-fluoro-2-{[(2R,7aS)-2-fluorotetrahydro-1H-pyrrolizin-7a(5H)-yl]methoxy}-10-methyl-9-(propan-2-yl)-9,10-dihydro-8H-7-oxa-1,3,6,10-tetraazacyclohepta[1,2,3-de]naphthalen-5-yl]naphthalen-2-ol] | 0.216 µM | > 3 µM | 2.27 µM
13 | C#Cc1c(F)ccc2cc(O)cc(-c3nc4c5c(nc(OC[C@@]67CCCN6C[C@H](F)C7)nc5c3F)N3CCC[C@@](C)(O)[C@H]3CO4)c12 [Example 53, (8aR,9R)-5-(8-ethynyl-7-fluoro-3-hydroxynaphthalen-1-yl)-4-fluoro-2-{[(2R,7aS)-2-fluorotetrahydro-1H-pyrrolizin-7a(5H)-yl]methoxy}-9-methyl-8,8a,9,10,11,12-hexahydro-7-oxa-1,3,6,12a-tetraazabenzo[4,5]cyclohepta[1,2,3-de]naphthalen-9-ol] | 0.0345 µM | 0.113 µM | 
14 | C#Cc1c(F)ccc2cc(O)cc(-c3nc4c5c(nc(OC[C@@]67CCCN6C[C@H](F)C7)nc5c3F)N(C(C)C)[C@@H](C)CO4)c12 [Example 56, 5-ethynyl-6-fluoro-4-[(9S)-4-fluoro-2-{1[(2R,7aS)-2-fluorotetrahydro-1H-pyrrolizin-7a(5H)-yl]methoxy}-9-methyl-10-(propan-2-yl)-9,10-dihydro-8H-7-oxa-1,3,6,10-tetraazacyclohepta[1,2,3-de]naphthalen-5-yl]naphthalen-2-ol] | 0.00245 µM | 0.00514 µM | 0.00351 µM
15 | C#Cc1c(F)ccc2cc(O)cc(-c3nc4c5c(nc(OC[C@@]67CCCN6C[C@H](F)C7)nc5c3F)N3CCOC[C@H]3CO4)c12 [Example 58, 5-ethynyl-6-fluoro-4-[(8aS)-4-fluoro-2-{[(2R,7aS)-2-fluorotetrahydro-1H-pyrrolizin-7a(5H)-yl]methoxy}-8a,9,11,12-tetrahydro-8H-7,10-dioxa-1,3,6,12a-tetraazabenzo[4,5]cyclohepta[1,2,3-de]naphthalen-5-yl]naphthalen-2-ol] | 0.0367 µM | 0.0594 µM | 0.0432 µM
16 | C#Cc1c(F)ccc2cc(O)cc(-c3nc4c5c(nc(OC[C@@]67CCCN6C[C@H](F)C7)nc5c3F)N3CC(F)(F)CC[C@H]3CO4)c12 [Example 98, 5-ethynyl-6-fluoro-4-[(8aS)-4,11,11-trifluoro-2-{[(2R,7aS)-2-fluorotetrahydro-1H-pyrrolizin-7a(5H)-yl]methoxy}-8,8a,9,10,11,12-hexahydro-7-oxa-1,3,6,12a-tetraazabenzo[4,5]cyclohepta[1,2,3-de]naphthalen-5-yl]naphthalen-2-ol] | 0.114 µM |  | 
17 | C#Cc1c(F)ccc2cc(O)cc(-c3nc4c5c(nc(OC[C@@]67CCCN6C[C@H](F)C7)nc5c3F)N3CCC[C@](C)(O)[C@@H]3CO4)c12 [Example 113, (8aS,9S)-5-(8-ethynyl-7-fluoro-3-hydroxynaphthalen-1-yl)-4-fluoro-2-{[(2R,7aS)-2-fluorotetrahydro-1H-pyrrolizin-7a(5H)-yl]methoxy}-9-methyl-8,8a,9,10,11,12-hexahydro-7-oxa-1,3,6,12a-tetraazabenzo[4,5]cyclohepta[1,2,3-de]naphthalen-9-ol] | > 3 µM | > 3 µM | 
